Laboratory results as given in publication PMC2666795, “Bacterial Genome Partitioning: N-Terminal Domain of IncC Protein Encoded by Broad-Host-Range Plasmid RK2 Modulates Oligomerisation and DNA Binding” (Journal of Molecular Biology, 2009).
Blank lines part the entries; values can stand above or below the molecule they belong to.

Tests used:
IncC1 = target: T1, IncC1 (Escherichia coli, UniProt P07673); assay: velocity sedimentation (analytical ultracentrifugation), dimer formation; format: binding; conditions: read-out: Kapp
T1 construct: gene incC; full-length 364 aa, His6-tagged from modified pET28a (pGBT342), expressed in E. coli BL21, nickel-agarose; thrombin cleavage of tag described; monomer 40 kDa, dimer 80 kDa with ATP
T1 sequence (P07673 1-364): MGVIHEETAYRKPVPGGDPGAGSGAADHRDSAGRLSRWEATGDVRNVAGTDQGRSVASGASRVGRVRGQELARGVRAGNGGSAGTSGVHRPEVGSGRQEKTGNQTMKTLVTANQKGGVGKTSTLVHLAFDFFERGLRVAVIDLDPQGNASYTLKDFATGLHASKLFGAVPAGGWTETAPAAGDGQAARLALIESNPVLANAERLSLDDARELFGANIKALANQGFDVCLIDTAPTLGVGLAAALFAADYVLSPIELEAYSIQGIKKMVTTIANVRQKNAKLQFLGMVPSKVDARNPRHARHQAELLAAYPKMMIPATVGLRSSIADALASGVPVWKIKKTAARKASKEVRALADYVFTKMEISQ

IncC2 = target: T2, IncC2 (Escherichia coli, UniProt P07673); assay: glutaraldehyde cross-linking with the IncC1 N-terminal domain; conditions: 2 mM ADP, 10 mM MgCl2, 25 mM phosphate pH 7.5; nucleotide-dependent binding of NTD to IncC2
T2 construct: gene incC; short form 259 aa (IncC1 without residues 1-105), His6-tagged from modified pET28a (pGBT343), expressed in E. coli BL21, nickel-agarose; thrombin cleavage of tag described
T2 sequence (P07673 106-364): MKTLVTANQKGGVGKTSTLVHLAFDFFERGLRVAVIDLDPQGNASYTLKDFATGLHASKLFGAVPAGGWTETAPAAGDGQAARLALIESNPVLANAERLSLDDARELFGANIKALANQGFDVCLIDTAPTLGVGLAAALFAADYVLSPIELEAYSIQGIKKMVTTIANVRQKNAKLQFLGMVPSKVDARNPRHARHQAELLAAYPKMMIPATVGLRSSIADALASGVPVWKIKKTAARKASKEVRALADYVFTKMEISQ

[1] = target: T3, IncC2 (259 aa), short ParA protein made from the second translational start of incC of plasmid RK2 (plasmid RK2 (IncP-1), UniProt P07673 106-364); assay: cross-linking; glutaraldehyde 0-0.1%, with 2 mM ATP; 5 μg of each protein in 50 μl, 10 mM MgCl2, 25 mM phosphate buffer pH 7.5; 30 min 37 °C, then 30 min 30 °C with glutaraldehyde; SDS-PAGE, Western blot with anti-IncC; conditions: both partners purified
T3 construct: IncC2, the product of the second translational start of incC of plasmid RK2, 259 aa; it lacks the N-terminal domain (amino acids 1-105) of IncC1; numbers count on IncC1; also called His6-IncC2; source: E. coli BL21 (printed: C600 BL21), modified pET28a vector, purified (nickel-agarose)
T3 sequence (looked up): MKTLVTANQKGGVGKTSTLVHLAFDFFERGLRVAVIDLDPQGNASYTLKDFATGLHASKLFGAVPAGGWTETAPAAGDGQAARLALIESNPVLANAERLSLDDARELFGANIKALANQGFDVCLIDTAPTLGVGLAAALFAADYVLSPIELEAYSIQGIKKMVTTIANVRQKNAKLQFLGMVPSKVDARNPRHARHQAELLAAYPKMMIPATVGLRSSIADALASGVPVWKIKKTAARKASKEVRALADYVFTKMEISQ

[2] = target: the molecule itself; assay: AUC; velocity sedimentation, 30 μM IncC1 with varying ATP concentrations, with magnesium; 50 mM sodium phosphate pH 8.0, 100 mM NaCl, 40,000 rpm, 4 °C

Kd (IncC1): 54 µM
Molecule: Nc1ncnc2c1ncn2[C@@H]1O[C@H](COP(=O)(O)OP(=O)(O)O)[C@@H](O)[C@H]1O [ADP]
glutaraldehyde cross-linking with the IncC1 N-terminal domain (IncC2): In the presence of either ATP or ADP, the NTD was found to interact with IncC2

Molecule: Nc1ncnc2c1ncn2[C@@H]1O[C@H](COP(=O)(O)OP(=O)(O)OP(=O)(O)O)[C@@H](O)[C@H]1O [ATP]
Kd (IncC1): 7.7 µM

binding result [1]: binds
B1: N-terminal domain of IncC1 (amino acids 1-105) (domain or fragment, plasmid RK2 (IncP-1), UniProt P07673 1-105, looked up)
chain: MGVIHEETAYRKPVPGGDPGAGSGAADHRDSAGRLSRWEATGDVRNVAGTDQGRSVASGASRVGRVRGQELARGVRAGNGGSAGTSGVHRPEVGSGRQEKTGNQT
notes: N-terminal domain of IncC1 of plasmid RK2, amino acids 1-105, 11 kDa; also called NTD; IncC1 NTD; source: E. coli, expressed from pSMB315 (pGBT340 with incC1-NTD), purified

B2: IncC1 (364 aa), long ParA protein encoded by incC of broad-host-range plasmid RK2 (natural protein, plasmid RK2 (IncP-1), UniProt P07673 1-364, looked up)
chain: MGVIHEETAYRKPVPGGDPGAGSGAADHRDSAGRLSRWEATGDVRNVAGTDQGRSVASGASRVGRVRGQELARGVRAGNGGSAGTSGVHRPEVGSGRQEKTGNQTMKTLVTANQKGGVGKTSTLVHLAFDFFERGLRVAVIDLDPQGNASYTLKDFATGLHASKLFGAVPAGGWTETAPAAGDGQAARLALIESNPVLANAERLSLDDARELFGANIKALANQGFDVCLIDTAPTLGVGLAAALFAADYVLSPIELEAYSIQGIKKMVTTIANVRQKNAKLQFLGMVPSKVDARNPRHARHQAELLAAYPKMMIPATVGLRSSIADALASGVPVWKIKKTAARKASKEVRALADYVFTKMEISQ
notes: IncC1, the product of the first translational start of incC (parA) of IncP-1 plasmid RK2, 364 aa; also called His6-IncC1; His-IncC1; source: E. coli BL21 (printed: C600 BL21), modified pET28a vector, purified (nickel-agarose)
stoichiometry N [2]: 2
